Results reported in US10112911B2, “Substituted cyanoguanidines as oral anti-virals” (Abbvie Inc, priority 2012, dated 2018).
pEC50: −log10 of the molar value.

Each compound was assayed on RSV (Group A, Long Strain) (assay: Cytopathetic effect (CPE) protection antiviral assay, MTT readout). Conditions: human respiratory syncytial virus, HEp-2, 96 h, HEp-2 cells, 0.2 MOI RSV, 4 days incubation, protection from CPE (Table 1); read-out: RSV EC50.
Format: cell-based
Method: HEp-2 cells and RSV (Group A, Long Strain) were obtained from the American Type Culture Collection (Manassas, Va.).
A cytopathetic effect (CPE) protection assay was performed to determine the ability of a compound to protect the cells from viral infection and thus the CPE induced by viral infection. 96-Well plates were first seeded with […] per well in Dulbecco's modified Eagle's medium (DMEM) containing 10% fetal bovine serum (FBS). One day after the cells were seeded, they were preincubated with serial dilutions of compounds prepared in 100 μL assay medium (DMEM mixed with F12 medium at a 1:1 ratio, supplemented with 2% FBS and 1 mM sodium pyruvate) for 1 hour at 37° C. 100 μL of assay medium containing 0.2 multiplicity of infection (MOI) of RSV was then added to each well of cells. In addition to wells containing infected cells incubated with compounds, each plate also contained replicates of two kinds of controls: (1) Virus control contained cells infected with 0.2 MOI of RSV in assay medium, (2) Uninfected cell control contained cells incubated with assay medium only. After 4 days of incubation at 37° C., the viability of cells was assessed using MTT (Thiazolyl blue tetrazolium bromide, Sigma). A stock solution of MTT, at a concentration of 4 mg/mL in phosphate-buffered saline, was added to all wells at 25 μL per well. Plates were further incubated for 4 hours, and each well was then treated with 50 μL of a solution containing 20% sodium dodecyl sulfate (SDS) and 0.02 N HCl. After an overnight incubation, the plates were measured on a BioTek® microtiter plate reader at wavelengths of 570 nm and 650 nm. The MTT detection is based on the fact that viable (uninfected) cells can reduce the tetrazolium salts into colored formazan products, which can then be quantitated by spectrometry. Based on the spectrometric absorbance of each sample, the percent of protection from CPE, which is an indicator of protection from viral infection, can be calculated for each compound and the 50% effective concentrations (EC50) can be calculated using a nonlinear regression curve fitting equation provided by the GraphPad Prism® 4 software.
Compounds were tested to determine both their antiviral and toxicity to determine their therapeutic window. Determination of the EC50 and TD50 of these active compounds were repeated one additional time to confirm the window.

| pEC50 | Compound |
| --- | --- |
| < 5.00 | Cc1ccccc1NC(=NC#N)N1CCN(c2nc(C)c(C)c(NC3CCCCC3)n2)CC1C(C)C (stereo not shown) [Example 1.64, N′-cyano-4-[4-(cyclohexylamino)-5,6-dimethylpyrimidin-2-yl]-2-isopropyl-N-(2-methylphenyl)piperazine-1-carboximidamide] |
| < 5.00 | Cc1ccc2ccc(N3CCN(C(=NC#N)Nc4ccccc4C)C(C(C)C)C3)nc2n1 (stereo not shown) [Example 1.68, N′-cyano-2-isopropyl-4-(7-methyl-1,8-naphthyridin-2-yl)-N-(2-methylphenyl)piperazine-1-carboximidamide] |
| 5.52 | Cc1ccccc1NC(=NC#N)N1CCN(c2nc3ccccc3n2C)CC1C(C)C (stereo not shown) [Example 1.69, N′-cyano-2-isopropyl-4-(1-methyl-1H-benzimidazol-2-yl)-N-(2-methylphenyl)piperazine-1-carboximidamide] |
| < 5.00 | Cc1ccccc1NC(=NC#N)N1CCN(c2cnc3ccccc3n2)C(C(C)C)C1 (stereo not shown) [Example 1.70, N′-cyano-3-isopropyl-N-(2-methylphenyl)-4-(quinoxalin-2-yl)piperazine-1-carboximidamide] |
| < 5.27 | Cc1ccncc1NC(=NC#N)N1CCN(c2cnc3ccccc3n2)CC1C(C)C (stereo not shown) [Example 1.72, N′-cyano-2-isopropyl-N-(4-methylpyridin-3-yl)-4-(quinoxalin-2-yl)piperazine-1-carboximidamide] |
| < 5.00 | Cc1ncccc1N/C(=N/C#N)N1CCN(c2cnc3ccccc3n2)CC1C(C)C (stereo not shown) [Example 1.73, N′-cyano-2-isopropyl-N-(2-methylpyridin-3-yl)-4-(quinoxalin-2-yl)piperazine-1-carboximidamide] |
| < 4.21 | Cc1ccccc1NC(=NC#N)N1CCN(c2cnc3ccccc3n2)CC1 [Example 1.74, N′-cyano-N-(2-methylphenyl)-4-(quinoxalin-2-yl)piperazine-1-carboximidamide] |
| < 5.00 | Cc1ccccc1NC(=NC#N)NC(CNc1cnc2ccccc2n1)C(C)C (stereo not shown) [Example 2.1, 2-cyano-1-(2-methylphenyl)-3-[3-methyl-1-(quinoxalin-2-ylamino)butan-2-yl]guanidine] |

| Compound | pEC50 |
| --- | --- |
| Cc1ccccc1NC(=NC#N)N1CCN(c2ccc3nccnc3n2)CC1C(C)C (stereo not shown) [Example 1.65, N′-cyano-2-isopropyl-N-(2-methylphenyl)-4-(pyrido[2,3-b]pyrazin-6-yl)piperazine-1-carboximidamide] | 5.23 |
| Cc1ccccc1NC(=NC#N)N1CCN(c2ccc3cccnc3n2)CC1C(C)C (stereo not shown) [Example 1.66, N′-cyano-2-isopropyl-N-(2-methylphenyl)-4-(1,8-naphthyridin-2-yl)piperazine-1-carboximidamide] | 5.82 |
| Cc1ccccc1NC(=NC#N)N1CCN(c2cnc3cc(F)ccc3n2)C[C@@H]1C(C)C [Example 1.67, (2S)—N′-cyano-4-(6-fluoroquinoxalin-2-yl)-2-isopropyl-N-(2-methylphenyl)piperazine-1-carboximidamide] | 6.44 |
| Cc1ccccc1N(C)C(=NC#N)N1CCN(c2cnc3ccccc3n2)CC1C(C)C (stereo not shown) [Example 1.75, N′-cyano-2-isopropyl-N-methyl-N-(2-methylphenyl)-4-(quinoxalin-2-yl)piperazine-1-carboximidamide] | 5.47 |

Same assay, conditions: human respiratory syncytial virus, HEp-2, 96 h, read-out: RSV EC50

| Compound | pEC50 |
| --- | --- |
| Cc1ccccc1NC(=NC#N)N1CCN(c2cnc3ccccc3n2)CCC1C(C)C (stereo not shown) [Example 3.1, N′-cyano-7-isopropyl-N-(2-methylphenyl)-4-(quinoxalin-2-yl)-1,4-diazepane-1-carboximidamide] | < 4.49 |
